{"source": "patent US20260215425A1", "about": "“NITRIFICATION INHIBITORS” (The University of Melbourne, priority 2022, published 2026)", "key": {"[1]": {"system": "N. europaea and N. multiformis", "assay": "activity recovery assay (binding studies)", "type": "cell-based", "conditions": "[inhibitor]=1.5 mM, 30 min, then washed and re-incubated with (NH4)2SO4", "protocol": "Cells were harvested using the ‘standard cell harvesting protocol’. The bacteria solution was adjusted to an OD600=0.8 (100 μg/L protein) and 980 μL aliquots were transferred to 1.5 mL centrifuge tubes (Eppendorf®, polypropylene). 10 μL of the inhibitor solution (150 mM in DMSO) was added and pre-equilibrated for 5 min; 10 μL of aqueous 150 mM (NH4)2SO4 (final concentration in tube=3 mM) was added by via multichannel pipette to ensure simultaneous addition in each tube. The tubes were incubated in a temperature-regulated rotary incubator (Ratek, Australia) for 30 min at 30° C. at 100 rpm in the dark. After 30 minutes, a 50 μL aliquot was transferred to a 96-well plate (Greiner Cellstar®, polystyrene), 50 μL of Griess reagent was added and the mixture incubated for 15 minutes. The absorbance was measured photometrically (Clariostar® BMG Labtech, Australia) at 540 nm. The cells were washed repeatedly (3×) by periodic centrifuging (Boeco, Germany; 10.000 rpm, 10 min) and resuspending the pellet in 1 mL NaPB. After the final centrifuging step, the pellet was resuspended in 990 μL NaPB and re-incubated with (NH4)2SO4 (10 μL of an aqueous 150 mM solution), and the NO2 concentration was measured under the previously described conditions. Each assay was accompanied by control treatments to determine the 0% and 100% NO2 signal. […]"}, "N. europaea": {"system": "N. europaea", "assay": "O2 consumption measurements", "type": "cell-based", "conditions": "[NH4+] 3 mM, 20° C.", "protocol": "O2 consumption rates of cell suspensions of N. europaea were measured using a Clark-type oxygen electrode (Rank Brothers, Cambridge, UK) mounted in a water-jacketed electrode chamber (3 mL capacity) that was connected to a recirculating cooler (Lauda, Austria). The data were recorded using a Data-trax™ (World Precision Instruments, UK) sensor data collection system. All measurements were taken at 20° C. and 1 mL final reaction solution volume. The polarizing voltage was set to 0.6 V. To calibrate the oxygen signal, an excess (approximately 50 mg) of Na2S2O4 was added to 1 mL of Milli-Q water to chemically remove dissolved O2. […] The voltage at saturated O2 concentration (“100% O2”) was determined by measuring the voltage of the equilibrated aerated reaction system consisting of 1 mL Milli-Q water. Sample measurements were taken as follows: The 1 mL reaction mixture, composed of 980 μL N. europaea cell solution in NaPB (OD600=0.8; corresponding to approximately 468 μg/L protein) was equilibrated for 5 min in the chamber until the voltage reading was stable. […] After 4 min of oxygen consumption (a linear rate coefficient of approximately kobs=k=274.7+20.0 nmol O2 L^−1 s^−1 was determined), 10 μL of the inhibitor stock solution of MPT in DMSO (1.2 mM and 0.6 mM) were added via a 10-μL Eppendorf pipette through a capillary opening, ensuring the emergence of the pipette tip in the solution. […]"}}, "data": [{"molecule": "C#CCn1cc(C)nn1", "note": "[Compound 4-MPT, 4-Methyl-1-(prop-2-yn-1yl)-1H-1,2,3-triazole]", "values": [{"measurement": "recovery of activity of cells after three washing steps", "setting": "[1]", "result": "could not be recovered"}, {"measurement": "observed rate coefficient kobs for the O2 consumption", "setting": "N. europaea; [MPT]=0.6 mM", "result": 0.0027, "unit": "s⁻¹"}, {"measurement": "observed rate coefficient kobs for the O2 consumption", "setting": "N. europaea; [MPT]=1.2 mM", "result": 0.0045, "unit": "s⁻¹"}]}]}
